Measured values: US20090111177A1, “Maintenance of Embryonic Stem Cells by the GSK-3 Inhibitor 6-Bromoindirubin-3'-Oxime” (THE ROCKEFELLER UNIVERSITY, priority 2003, published 2009)

What was measured:
HESCs (H1) = test: Embryoid body formation from HESCs; type: cell-based, human
Method: Embryoid body (EB) formation. HESCs were harvested by using dispase (Invitrogen), plated on non-tissue culture treated dishes (approximately 10^7 cells/10 cm dish), and grown in non-conditioned medium for 7 d as described before (Sato et al., 2003, Molecular signature of human embryonic stem cells and its comparison with the mouse. Dev Biol 260, 404-413). The number of EBs was determined by counting EBs in 20 different fields at a low magnification (10×) using an Axiovert microscope (Zeiss). Experiments were repeated at least three times, and the average number as well as standard deviation were calculated. For the detection of differentiated derivatives by immunocytochemistry, EBs (day 7) were plated on collagen-coated 12-well plates to allow them to adhere, grown in DMEM containing 10% FBS to induce further differentiation for 7 d and fixed in 4% paraformaldehyde followed by immunostaining as shown below.
RT-PCR. Two μg of total RNA extracted from EBs (day 7) or mouse embryonic fibroblasts was reverse-transcribed using ThermoScript RT-PCR system (Invitrogen) according to the manufacturer's protocol. One μl of cDNA sample was PCR amplified with each gene-specific primers (shown below) using optimized PCR cycles to obtain amplified reactions in a linear range.

[1] = tested on: canonical Wnt pathway (TCF binding sites, TopFlash); test: TopFlash/FopFlash luciferase reporter assay in CJ7 cells (MESCs); type: cell-based, mouse; details: FIG. 2b
Method: (§1) Luciferase assay. […] Test compounds were added 24 hrs after transfection. Following incubation for 24 hrs, cells were harvested, and analyzed by the dual luciferase reporter assay system (Promega) using Lumat (Berthold Technologies). Each value was standardized by Renilla luciferase activity.
(§2) The canonical Wnt signal occurs through binding of the Wnt protein to the Frizzled receptor at cell surface. It is followed by inactivation of GSK-3, leading to accumulation of β-catenin in the nucleus that activates the transcription of Wnt target genes in collaboration with TCFs^18,19. Alternatively, Wnt signaling can be activated by direct, intracellular inhibition of the GSK-3 function using specific inhibitors^20. […] First we examined whether mouse and human ESCs were capable of transducing Wnt signaling under the influence of 6-bromoindirubin-3′-oxime. […] We then evaluated expression of β-catenin at the cellular level as a read-out of the activation status of the canonical Wnt pathway in HESCs.

HESCs (H1, BGN1) = test: Feeder-free culture of HESCs, undifferentiated morphology; type: cell-based, human; details: feeder-free, non-conditioned medium; 7 d; 6-bromoindirubin-3′-oxime and Me analogue 2 μM, LiCl 5 mM, Wnt3a protein
Method: (§3) Cell culture. Human embryonic stem cells (HESCs) lines were provided by WiCell Research Institute (H1 line)^5 and BresaGen Inc. (BGN1 and BGN2 lines). H1 cells were cultivated on irradiated mouse embryonic fibroblasts (MEFs) in medium consisting of 80% DMEM/F12 medium, 20% knockout serum replacement (KSR), 1 mM L-glutamine, 1% non-essential amino acids, 0.1 mM β-mercaptoethanol, and 4 ng/ml basic FGF (all from Invitrogen). […] Subsequently, HESCs were cultured on Matrigel (BD biosciences) in medium conditioned by MEFs, and passaged several times until colonies became free from contaminating MEFs as described before^9.

CJ-GFP cells (MESCs) = test: Blastocyst injection of treated CJ-GFP cells, chimera generation; type: in vivo, mouse
Method: Blastocyst injection. We cultured CJ-GFP cells at a low density (500 cells/cm^2) on gelatin-coated 10 cm dishes in medium containing 6-bromoindirubin-3′-oxime 1 μM for 5 d. 6-bromoindirubin-3′-oxime-treated cells (approximately 10 to 15 cells per blastocyst) were microinjected into each blastocyst and transferred into surrogate mice in the C57Bl/6 background. Mid-gestation embryos were recovered and subjected to tissue sectioning. Chimerism of live offspring was determined by evaluation of their mixed coat color.
Immunofluorescence. Cells were fixed in 4% paraformaldehyde for 20 min at room temperature and incubated overnight at 4° C. with primary antibodies against Oct-4 (BD Biosciences), β-catenin (BD Biosciences), Tuj-1 (BAbCO), cytokeratin (Sigma), glial fibrillary acidic protein, GFAP, (Dako), smooth muscle actin (Research Diagnostics Inc), α-fetoprotein (α-FP, Cell Sciences) and Tromal (Developmental Studies Hybridoma Bank). […] For the quantitative image analysis, fluorescent images from triplicate samples were taken by the Discovery1 system (Universal Imaging Corporation). The fluorescent objects were selected by the threshold function and evaluated in five regions of each well by quantification of pixel intensities and the object size by using MetaMorph software (Universal Imaging Corporation).

[2] = tested on: canonical Wnt pathway (TCF binding sites, TopFlash); test: TopFlash luciferase reporter assay in 293 cells; type: cell-based; details: 293 human kidney epithelial cells; micromolar concentrations; data not shown
Method: as §1, §2

H1 cells = test: Differentiation of HESCs into neurons on PA6 stromal cells; type: cell-based, human; details: comparable to conditioned medium-treated cells
Source text: Differentiation of ES cells into neurons. The PA6 stromal cell line (RIKEN) was used for the co-culture system (Kawasaki et al., 2002, Generation of dopaminergic neurons and pigmented epithelia from primate ES cells by stromal cell-derived inducing activity. Proc Natl Acad Sci USA 99, 1580-1585). H1 cell colonies grown on Matrigel under different conditions for 7 d were harvested and cultured (100˜200 cells/clump, approximately 5 clumps/well of a 12-well plate) on PA6 stromal cells in 90% Knockout-Dulecco's modified Eagle's medium, 10% KSR, 1 mM L-glutamine, 1% non-essential amino acids, 0.1 mM β-mercaptoethanol for 3 weeks as previously described (Sato et al., 2003, Molecular signature of human embryonic stem cells and its comparison with the mouse. Dev Biol 260, 404-413). At the end of the culture period, cells were stained with a neuron-specific antibody, Tuj-1, as shown below. The number of wells containing Tuj-1 positive neurons was determined in each condition in repeated experiments.

β-catenin = β-catenin immunofluorescence confocal analysis in HESCs; type: cell-based, human; details: compared to non-conditioned medium treated cells, FIG. 2c
Method: as §3
Immunofluorescence. […] For the quantitative image analysis, fluorescent images from triplicate samples were taken by the Discovery1 system (Universal Imaging Corporation). The fluorescent objects were selected by the threshold function and evaluated in five regions of each well by quantification of pixel intensities and the object size by using MetaMorph software (Universal Imaging Corporation).

O=C1Nc2cc(Br)ccc2/C1=C1/Nc2ccccc2/C1=N\O [6-bromoindirubin-3′-oxime]
lineage-specific markers of EBs by RT-PCR (HESCs (H1); EBs day 7, FIG. 5b): developed into ectoderm (NeuroD and keratin), mesoderm (T gene) and endoderm (α-fetoprotein and GATA4) derivatives | differentiation phenotype of adherent EBs by immunocytochemistry (HESCs (H1); EBs grown under adherent condition, FIG. 5c): wide variety of morphology and lineage-specific molecule expression | EBs formation (HESCs (H1); H1 cells after treatment, FIG. 5a): at a level comparable to that seen with conditioned medium-treated cells | TopFlash reporter activity ([1]; CJ7 cells (MESCs)): remarkable increase in TopFlash reporter activity in a dose-dependent manner | FopFlash reporter activity ([1]; CJ7 cells, non-responsive mutated binding sites): no substantial change in FopFlash reporter activity | morphology / undifferentiated phenotype of HESCs (HESCs (H1, BGN1)): largely retained an undifferentiated morphology | coat-color chimerism of live offspring (CJ-GFP cells (MESCs); initial assessment, new-born animals): two of five new-born animals were chimeric | incorporation of treated cells into embryonic tissues (CJ-GFP cells (MESCs); mid-gestation stage, immunohistochemistry, FIG. 6): incorporated into several embryonic tissues | TopFlash reporter activity [2]: robustly upregulated the reporter activity | neurogenesis on stromal feeders (Tuj-1) (H1 cells): robust neurogenesis | nuclear accumulation of β-catenin (β-catenin): nuclear accumulation of β-catenin
